Results taken from patent US9844217B2, “Allomone repulsive and kairomone attractive compositions for controlling arachnids” (Fideline, priority 2002, dated 2017).

System: chicken mites
Experiment: Tests for resistance to other miticides
Parameters: species or system Dermanyssus gallinae
Details: for % deaths 1× dose: 1× the dose on the product's instructions; for % deaths 4× dose: 4× the commercial dose; for % deaths 8× dose: 8× the commercial dose; for % deaths 16× dose: 16× the commercial dose; for % deaths 32× Dose: 32× the commercial dose
Text: The doses were chosen at 1 to 32 times the dose commercially given on the products' instructions.

SMILES	% deaths 1× dose	% deaths 1× dose (listed as Amitraze)	% deaths 4× dose	% deaths 8× dose	% deaths 16× dose	% deaths 32× Dose	% deaths 4× dose (listed as Aphamethrine)
Cc1ccc(/N=C/N(C)/C=N/c2ccc(C)cc2C)c(C)c1 [Amitraz]	97.4%	most efficient miticide	98.5%	100.00%	100.00%	100.0%	
CC1(C)C(C=C(Cl)Cl)C1C(=O)OC(C#N)c1cccc(Oc2ccccc2)c1 (stereo not drawn) [Aplhamethrine]	48.1%		85.2%	97.0%	98.9%	99.6%	85%
COP(=O)(OC)SCn1c(=O)oc2cc(Cl)cnc21 [Azamethiphos]	30.0%		43.3%	54.8%	100.00%	97.8%	
CNC(=O)Oc1cccc2ccccc12 [Carbaryl]	19.3%		37.8%	64.4%	91.1%	97.8%	
COP(=O)(OC)C(O)C(Cl)(Cl)Cl (stereo not drawn) [Trichlorfon]	20.4%		39.7%	34.4%	80.8%	94.4%	
